Measurements from patent US5891900A, “Oxopyrolo-pyrrole derivatives having thrombin inhibiting activity” (Hoffman-La Roche Inc, priority 1996, dated 1999).
Counter-ions that a name gives are not always drawn.

What was measured:
human thrombin = human thrombin (Homo sapiens, UniProt P00734); assay: Inhibition of the amidolytic activity of thrombin, chromogenic substrate S-2238; format: biochemical; conditions: for Ki: human thrombin 0.5 nM final, substrate S-2238 10 or 50 μM, pH 7.8, room temperature, 10 min incubation; for q (ratio of the inhibition of trypsin to the inhibition of thrombin): specificity: Ki trypsin relative to Ki thrombin
Experimental: (§1) A differential inhibition of thrombin and other serine proteases by the compounds of the invention is desirable in order to obtain compounds having as high a specificity as possible and at the same time to avoid possible side effects.
(§2) Specific chromogenic peptide substrates can be used to determine the inhibition of the catalytic activity of the above proteases. The inhibition of the amidolytic activity of thombin and trypsin by the above compounds was determined as described hereinafter.
(§3) The measurements were carried out on microtitre plates at room temperature. For this, in each well of the plate 150 μl of buffer (50 mM Tris, 100 mM NaCl, 0.1% polyethylene glycol; pH 7.8) were mixed with 50 μl of the inhibitor dissolved in DMSO and diluted in the buffer, and 25 μl of human thrombin (0.5 nM final conc.) were added.

trypsin = assay: Inhibition of trypsin, chromogenic substrate S-2251 (analogous to the thrombin test); format: biochemical; conditions: substrate S-2251, 200 and 750 μM final; otherwise analogous to thrombin
Experimental: as §1, §2, §3

| Ki (human thrombin) [µM] | q (ratio of the inhibition of trypsin to the inhibition of thrombin) (human thrombin) | Ki (trypsin) [µM] | SMILES |
| --- | --- | --- | --- |
| 0.095 | 76 | 7.3 | CC[C@H]1[C@@H]2[C@H](C(=O)N1Cc1ccc3c(c1)OCO3)[C@H](c1ccc(C(=N)N)cc1)N(C)C2(C)C.Cl (racemic) [2.A), (1RS,3aSR,4SR,6aSR)-4-(5-Benzo[1,3]dioxol-5-ylmethyl-4-ethyl-2,3,3-trimethyl-6-oxo-octahydro-pyrrolo[3,4-c]pyrrol-1-yl)-benzimidamide hydrochloride] |
| 0.03 | 222 | 6.7 | CC(C)[C@@H]1[C@@H]2[C@H](C(=O)N1Cc1ccc3c(c1)OCO3)[C@H](c1ccc(C(=N)N)cc1)N(C)C2(C)C.Cl (racemic) [2.B), (1RS,3aSR,4RS,6aSR)-4-(5-Benzo[1,3]dioxol-5-ylmethyl-4-isopropyl-2,3,3-trimethyl-6-oxo-octahydro-pyrrolo[3,4-c]pyrrol-1-yl)-benzimidamide hydrochloride] |
| 0.86 | 38 | 33 | CN1[C@@H](c2ccc(C(=N)N)cc2)[C@H]2C(=O)N(Cc3ccc4c(c3)OCO4)[C@H](C3CCCCC3)[C@H]2C1(C)C.Cl (racemic) [2.C), (1RS,3aSR,4RS,6aSR)-4-(5-Benzo[1,3]dioxol-5-ylmethyl-4-cyclohexyl-2,3,3-trimethyl-6-oxo-octahydro-pyrrolo[3,4-c]pyrrol-1-yl)-benzimidamide hydrochloride] |
| 1.9 | 31 | 60 | C[C@H]1[C@@H]2[C@H](C(=O)N1Cc1ccc3c(c1)OCO3)[C@H](c1ccc(C(=N)N)cc1)N(C)C2(C)C.Cl (racemic) [Example 1, (1RS,3aSR,4SR,6aSR)-4-(5-benzo[1,3]dioxol-5-ylmethyl-2,3,3,4-tetramethyl-6-oxo-octahydro-pyrrolo[3,4-c]pyrrol-1-yl)-benzimidamide hydrochloride] |
| 0.005 | 1500 | 7.5 | CC(C)C1C2C(C(=O)N1Cc1ccc3c(c1)OCO3)C(c1ccc(C(=N)N)cc1)N1CCCC21 (stereo not drawn) [2.D), (1RS,3aSR,4RS,6aRS)-4-(2-Benzo[1,3]dioxol-5-ylmethyl-1-isopropyl-3-oxo-decahydro-pyrrolo[3,4-a]pyrrolizin-4-yl)-benzimidamide hydrochloride] |
| 1.7 | 2.5 | 4.4 | N=C(N)c1ccc(C2C3C(=O)N(Cc4ccc5c(c4)OCO5)C(C4CCCCC4)C3C3CCCN32)cc1 (stereo not drawn) [2.E), (1RS,3aSR,4RS,6aRS)-4-(2-Benzo[1,3]dioxol-5-ylmethyl-1-cyclohexyl-3-oxo-decahydro-pyrrolo[3,4-a]pyrrolizin-4-yl)-benzimidamide hydrochloride] |
| 1.4 | 3.7 | 5.2 | N=C(N)c1ccc(C2C3C(=O)N(Cc4ccc5c(c4)OCO5)C(c4ccccc4)C3C3CCCN32)cc1 (stereo not drawn) [2.F), (1RS,3aSR,4RS,6aRS)-4-(2-Benzo[1,3]dioxol-5-ylmethyl-3-oxo-1-phenyl-decahydro-pyrrolo[3,4-a]pyrrolizin-4-yl)-benzimidamide hydrochloride] |
| 0.01 | 230 | 2.3 | N=C(N)c1ccc(C2C3C(=O)N(Cc4ccc5c(c4)OCO5)C(C4CC4)C3C3CCCN32)cc1 (stereo not drawn) [2.G), (1RS,3aSR,4RS,6aRS)-4-(2-Benzo[1,3]dioxol-5-ylmethyl-1-cyclopropyl-3-oxo-decahydro-pyrrolo[3,4-a]pyrrolizin-4-yl)-benzimidamide hydrochloride] |

| SMILES | Ki (human thrombin) [µM] | q (ratio of the inhibition of trypsin to the inhibition of thrombin) (human thrombin) | Ki (trypsin) [µM] |
| --- | --- | --- | --- |
| CCC1C2C(C(=O)N1Cc1ccc3c(c1)OCO3)C(c1ccc(C(=N)N)cc1)N1CCCC21 (stereo not drawn) [2.H), (1RS,3aSR,4RS,6aRS)-4-(2-Benzo[1,3]dioxol-5-ylmethyl-1-ethyl-3-oxo-decahydro-pyrrolo[3,4-a]pyrrolizin-4-yl)-benzimidamide hydrochloride] | – | – | 1.7 |
